GI50 and TGI data for 14 compounds are collected here from PubChem BioAssay (NCI).

Some test systems named below: MCF7 breast; T-47D breast; PC-3 prostate; BT-549 breast; HS 578T breast; MDA-MB-231 breast.
Common to all, as to test: NCI tumour cell line growth inhibition, 48 h

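1) Cells in 96-well plates. 2) Compound, 48 h, 5 concentrations. 3) Linear interpolation between surrounding doses. 4) Unreached endpoint = highest concentration. GI50: concentration for 50% inhibition of growth. TGI is the concentration that stops growth completely.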

For the compound `O=C(NCCOCCOCCNc1cccc2c1C(=O)N(C1CCCNC1=O)C2=O)c1cc2c(o1)C(=O)c1ccccc1C2=O` (stereo unspecified), the GI50 in the test on MCF7 breast is 1.25 µM; in the test on T-47D breast, 2.53 µM; with PC-3 prostate, 2.63 µM; in the test on BT-549 breast, 1.59 µM; in the test with HS 578T breast, 2.43 µM; in the test on MDA-MB-231 breast, 2.72 µM. Also, the TGI with MCF7 breast worked out at 3.21 µM; with T-47D breast it was 8.81 µM; with PC-3 prostate, 46 µM; with BT-549 breast, 2.98 µM; with HS 578T breast, 7.19 µM; in the test on MDA-MB-231 breast, 9.96 µM.

Regarding `O=C(CN1CCOCC1)Nc1ccc(Cn2nnc3c2C(=O)c2nnn(Cc4ccc(NC(=O)CN5CCOCC5)cc4)c2C3=O)cc1`, the GI50 was 0.18 µM in the test with MCF7 breast; 0.644 µM with PC-3 prostate; 1.46 µM with BT-549 breast; 1.94 µM in the test with HS 578T breast; 0.26 µM in the test on MDA-MB-231 breast. In addition, the TGI with MCF7 breast was 0.484 µM; in the test with PC-3 prostate, 5.63 µM; in the test with BT-549 breast, 2.83 µM; in the test on HS 578T breast, 8.34 µM; with MDA-MB-231 breast it was > 100 µM.

Consider `O=C1/C(=C/c2ccc(Cl)cc2Cl)N=C(c2ccccc2)N1Cc1ccco1`, for which the GI50 in the test with MCF7 breast is 13.9 µM; in the test on PC-3 prostate, 30.8 µM; with BT-549 breast it was 27.4 µM; with HS 578T breast, 22.7 µM; in the test on MDA-MB-231 breast it was 17.6 µM. Moreover, the TGI was 33.3 µM in the test on MCF7 breast; 93.9 µM in the test on PC-3 prostate; 87.9 µM with BT-549 breast; 65 µM in the test on HS 578T breast; 49.3 µM with MDA-MB-231 breast.

Turning to `COc1ccc(/C(=C2\O[C@@H]([C@H]3COC(C)(C)O3)[C@H]3OC(C)(C)O[C@@H]23)c2cc(OC)c(OC)c(OC)c2)cc1O`, the GI50 with MCF7 breast is 3.78 µM; in the test on T-47D breast it was 25.1 µM; in the test with PC-3 prostate, 5.11 µM; in the test on BT-549 breast it was 5.39 µM; in the test on HS 578T breast, 2.83 µM; in the test on MDA-MB-231 breast, 4.58 µM. In addition, the TGI in the test on MCF7 breast is > 100 µM; with T-47D breast, > 100 µM; with PC-3 prostate it was > 100 µM; in the test on BT-549 breast, > 100 µM; in the test with HS 578T breast, 7.88 µM; with MDA-MB-231 breast, 30.7 µM.

`CCCCC(=O)OCC1OC(n2cnc3c(=S)nc[nH]c32)C(OC(=O)CCCC)C1OC(=O)CCCC` (stereo unspecified): the GI50 with MCF7 breast is 1.13 µM; in the test on T-47D breast, 1.17 µM; in the test on PC-3 prostate, 2.21 µM; in the test on BT-549 breast, 1.11 µM; in the test with HS 578T breast, > 35.4 µM; in the test on MDA-MB-231 breast it was 5.22 µM. Besides, the TGI is > 100 µM in the test with MCF7 breast; > 59 µM in the test on T-47D breast; > 100 µM in the test on PC-3 prostate; > 28.7 µM in the test with BT-549 breast; > 100 µM in the test with HS 578T breast; > 100 µM in the test on MDA-MB-231 breast.

On to `O=c1oc2ccc(F)cc2c(=O)n1-c1ccc(F)cc1F`, for which the GI50 in the test with MCF7 breast is 2.87 µM; in the test with T-47D breast it was 2.28 µM; in the test on PC-3 prostate, 2.81 µM; in the test on BT-549 breast it was 2.53 µM; in the test with HS 578T breast it was 2.59 µM; with MDA-MB-231 breast it was 2.3 µM. Further, the TGI was > 100 µM in the test on MCF7 breast; 7.08 µM with T-47D breast; 10.1 µM with PC-3 prostate; 7.4 µM in the test with BT-549 breast; 8.51 µM in the test with HS 578T breast; 6.99 µM in the test on MDA-MB-231 breast.

Turning to `CC1CCC2(C(=O)O)CCC3(C)C(=CCC4C5(C)CC(O)C(O)C(C)(CO)C5C(O)CC43C)C2C1C` (stereo unspecified), the TGI is > 100 µM in the test with MCF7 breast; > 84.7 µM in the test with T-47D breast; > 100 µM with PC-3 prostate; > 93.5 µM in the test on BT-549 breast; 41.5 µM with HS 578T breast; 72 µM in the test with MDA-MB-231 breast.

On to `Cc1ccc(-c2c3c([nH]c(=O)c2C#N)-c2cc(F)ccc2OC3)cc1`, for which the GI50 in the test with MCF7 breast is 52.7 µM; in the test with T-47D breast it was 80.4 µM; with PC-3 prostate, 88.7 µM; with MDA-MB-231 breast it was 34.8 µM. The TGI in the test on MCF7 breast, with T-47D breast, in the test on PC-3 prostate and in the test on MDA-MB-231 breast was > 100 µM each time.

Regarding `O=C(c1ccco1)c1nc2ccc(C(F)(F)F)cc2[n+]([O-])c1C(F)(F)F`, the GI50 in the test on MCF7 breast was 41.6 µM; with PC-3 prostate, 28.7 µM; in the test on BT-549 breast, 39.4 µM; with HS 578T breast, > 100 µM; with MDA-MB-231 breast it was 25.4 µM. The TGI in the test with MCF7 breast, in the test on PC-3 prostate, with BT-549 breast, in the test with HS 578T breast and in the test on MDA-MB-231 breast was > 100 µM each time.

Regarding `Cn1cc(-c2cnc3ccc(NC(=O)Nc4ccc(F)c(Br)c4)cc3n2)cn1`, the GI50 in the test with T-47D breast is 0.631 µM; with PC-3 prostate it was 1.44 µM; in the test on BT-549 breast, 1.51 µM; in the test with HS 578T breast it was 2 µM; in the test with MDA-MB-231 breast, 1.78 µM. Besides, the TGI worked out at 2.27 µM in the test with T-47D breast; 3.62 µM in the test on PC-3 prostate; 3.24 µM with BT-549 breast; 5.15 µM with HS 578T breast; 4.14 µM in the test with MDA-MB-231 breast.

Consider `N#CSCC1CC(O)(c2ccccc2)C(c2ccccc2)C(c2ccc(Cl)cc2)O1` (stereo unspecified), for which the GI50 in the test on MCF7 breast is 1.27 µM; in the test on T-47D breast it was 1.07 µM; in the test on PC-3 prostate, 1.85 µM; with HS 578T breast it was 3.22 µM; with MDA-MB-231 breast, 1.8 µM. Besides, the TGI with MCF7 breast was determined as 3.21 µM; in the test with T-47D breast, 3.53 µM; in the test with PC-3 prostate, 4.98 µM; with HS 578T breast, 81 µM; in the test on MDA-MB-231 breast it was 4.79 µM.

For `O=[N+]([O-])/C=C\c1ccc(Cl)c(Cl)c1`, the GI50 in the test with T-47D breast was 2.82 µM; in the test on PC-3 prostate, 1.24 µM; in the test with BT-549 breast, 4.15 µM; in the test with HS 578T breast, 2.42 µM; in the test with MDA-MB-231 breast it was 5.73 µM. Besides, the TGI with T-47D breast worked out at 13.9 µM; in the test on PC-3 prostate, 3.93 µM; in the test with BT-549 breast, 14.9 µM; in the test on HS 578T breast it was 7.6 µM; with MDA-MB-231 breast, 23.2 µM.

As for `CCNCCNc1cc(-c2ccc(C(=O)OC)cc2)c(C#N)c2nc3ccccc3n12`, the GI50 in the test on MCF7 breast was 1.52 µM; in the test on T-47D breast it was 2.16 µM; in the test on PC-3 prostate, 5.28 µM; in the test on HS 578T breast, 2.42 µM. Besides, the TGI in the test on MCF7 breast was > 100 µM; with T-47D breast, 5.31 µM; in the test on PC-3 prostate it was > 100 µM; with HS 578T breast it was 7.48 µM.

In the case of `O=C(CI)NC1Oc2ccccc2-c2oc(=O)c(-c3ccccc3)cc21` (stereo unspecified), the GI50 with T-47D breast was 1.79 µM; in the test on BT-549 breast, 1.7 µM; in the test with HS 578T breast, 2.4 µM. Also, the results for the TGI in the test with T-47D breast, in the test on BT-549 breast and with HS 578T breast were 4.44 µM, 3.24 µM and 7.28 µM, respectively.
